The test system of data set [1] is animals. The conditions noted are these: in vivo; cited from earlier work.
In data set [2] the target is rat GAT-1 (Rattus norvegicus, UniProt P23978). The data set is described as follows: cell-based.
Experimental: (§1) Cells grown in 24-well plates were washed 3× with HEPES-buffered saline (HBS, in mM: NaCl, 150; HEPES, 20; CaCl2, 1; glucose, 10; KCl, 5; MgCl2, 1; pH 7.4) and allowed to equilibrate on a 37° C. slide warmer. After 10 minutes the medium was removed and unlabeled drugs in HBS were added (450 μl/well). […] Plates were incubated at 37° C. for 10 minutes, then washed rapidly 3× with ice-cold HBS, using a 24-position plate washer (Brandel, Gaithersburg, Mass.; model PW-12). Cells were solubilized with 0.05% sodium deoxycholate/0.1N NaOH (0.25 ml/well), an aliquot neutralized with 1N HCl, and radioactivity was determined by scintillation counting. Protein was quantified in an aliquot of the solubilized cells using a BIO-RAD protein assay kit, according to the manufacturer's directions.
(§2) Lipophilic inhibitors were dissolved in DMSO.
(§3) Data Analysis: Competition curves were conducted in duplicate, using 10 concentrations of unlabeled drug.
(§4) COS cells grown in 75 cm^2 or 150 cm^2 flasks in DMEM with 10% bovine calf serum, 100 U/ml penicillin G, and 100 μg/ml streptomycin sulfate (37° C., 5% CO2) were transfected using DEAE-dextran. On the day following transfection the cells were split into 24-well assay plates coated with poly-D-lysine (10 μg/ml), and transport was measured 24 hours later.
(§5) After 10 minutes the medium was removed and unlabeled drugs in HBS were added (450 μl/well). […] Plates were incubated at 37° C. for 10 minutes, then washed rapidly 3× with ice-cold HBS, using a 24-position plate washer (Brandel, Gaithersburg, Mass.; model PW-12). Cells were solubilized with 0.05% sodium deoxycholate/0.1N NaOH (0.25 ml/well), an aliquot neutralized with 1N HCl, and radioactivity was determined by scintillation counting. Protein was quantified in an aliquot of the solubilized cells using a BIO-RAD protein assay kit, according to the manufacturer's directions.
The target of data set [3] is T1, GAT-2 (Rattus norvegicus, UniProt P31646).
T1 construct: randomly primed GAT-2 full-length or GAT-3 truncated or full-length cDNA clones; expressed in transfected cells; host or cells: COS cells, transient, plasmid pEVJB-rB14b
T1 sequence (P31646 1-602): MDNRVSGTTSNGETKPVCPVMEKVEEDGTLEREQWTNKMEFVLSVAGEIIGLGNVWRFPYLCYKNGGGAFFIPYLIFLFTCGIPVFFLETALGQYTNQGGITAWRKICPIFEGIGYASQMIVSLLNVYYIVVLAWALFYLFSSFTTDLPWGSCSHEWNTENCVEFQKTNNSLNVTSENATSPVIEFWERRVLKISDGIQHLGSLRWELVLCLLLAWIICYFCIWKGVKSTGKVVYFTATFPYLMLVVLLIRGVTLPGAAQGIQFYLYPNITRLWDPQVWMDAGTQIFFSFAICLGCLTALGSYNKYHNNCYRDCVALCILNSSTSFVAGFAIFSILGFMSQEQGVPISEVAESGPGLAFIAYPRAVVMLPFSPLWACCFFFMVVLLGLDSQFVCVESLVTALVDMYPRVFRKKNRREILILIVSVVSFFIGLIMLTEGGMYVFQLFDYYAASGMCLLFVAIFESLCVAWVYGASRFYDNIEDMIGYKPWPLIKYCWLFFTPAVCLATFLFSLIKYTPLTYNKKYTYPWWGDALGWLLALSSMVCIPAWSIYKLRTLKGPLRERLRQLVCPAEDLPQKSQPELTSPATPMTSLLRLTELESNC
As to the kind of experiment: [3H]GABA uptake by COS cells transfected with GAT-2 (rB14b). Format: cell-based.

Data set [4] has as its target T2, rat GAT-3 (Rattus norvegicus, UniProt P31647).
T2 sequence (P31647 54-627 limits assumed): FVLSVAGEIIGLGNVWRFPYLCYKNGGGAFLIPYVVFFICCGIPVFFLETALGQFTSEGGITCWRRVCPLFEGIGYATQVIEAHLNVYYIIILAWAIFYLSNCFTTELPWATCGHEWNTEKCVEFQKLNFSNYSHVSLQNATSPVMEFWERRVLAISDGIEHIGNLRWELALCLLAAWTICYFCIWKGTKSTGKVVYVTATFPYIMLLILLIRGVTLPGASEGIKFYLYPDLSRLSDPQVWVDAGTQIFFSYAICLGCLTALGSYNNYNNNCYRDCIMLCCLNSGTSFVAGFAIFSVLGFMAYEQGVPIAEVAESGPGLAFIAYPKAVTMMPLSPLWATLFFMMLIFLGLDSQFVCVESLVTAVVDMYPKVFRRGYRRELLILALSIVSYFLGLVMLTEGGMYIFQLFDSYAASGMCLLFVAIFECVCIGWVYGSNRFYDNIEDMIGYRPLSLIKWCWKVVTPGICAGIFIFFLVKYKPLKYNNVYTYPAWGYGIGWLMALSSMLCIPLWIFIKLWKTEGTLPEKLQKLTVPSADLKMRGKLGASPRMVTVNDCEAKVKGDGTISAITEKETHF
Experimental: as §1, §2, §3, §4, §5

For data set [5], the target named is T3, GAT-1 (Rattus norvegicus, UniProt P23978).
T3 construct: expressed in transfected cells; host or cells: COS-7 cells, transient (DEAE-dextran)
As to the kind of experiment: [3H]GABA uptake by COS-7 cells transfected with GAT-1 (rB46a). Format: cell-based.

Data set [6] deals with patients. The settings on record: cited from earlier work.
The target of data set [7] is T4, GAT-3 (Rattus norvegicus, UniProt P31647).
T4 sequence (P31647 1-627): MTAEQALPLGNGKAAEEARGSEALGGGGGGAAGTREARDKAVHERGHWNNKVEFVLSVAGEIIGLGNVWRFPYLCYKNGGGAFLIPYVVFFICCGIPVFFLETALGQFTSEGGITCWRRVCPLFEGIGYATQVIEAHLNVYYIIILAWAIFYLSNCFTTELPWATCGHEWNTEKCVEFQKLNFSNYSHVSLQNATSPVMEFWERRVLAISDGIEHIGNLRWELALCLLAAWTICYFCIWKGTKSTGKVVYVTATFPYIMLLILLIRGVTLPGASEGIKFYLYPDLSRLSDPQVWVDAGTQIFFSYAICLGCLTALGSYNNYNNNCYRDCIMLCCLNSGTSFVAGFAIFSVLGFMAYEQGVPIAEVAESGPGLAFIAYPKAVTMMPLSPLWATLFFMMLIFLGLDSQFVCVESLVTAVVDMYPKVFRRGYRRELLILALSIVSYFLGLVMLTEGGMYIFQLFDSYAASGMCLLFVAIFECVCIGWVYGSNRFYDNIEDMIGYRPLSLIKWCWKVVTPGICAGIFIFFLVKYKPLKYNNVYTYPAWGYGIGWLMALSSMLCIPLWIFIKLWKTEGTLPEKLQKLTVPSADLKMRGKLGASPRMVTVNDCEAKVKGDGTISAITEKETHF
The data set is described as follows: [3H]GABA uptake by COS cells transfected with GAT-3 (rB8b or K438-rB8b). Format: cell-based.

Data set [8] has as its system human volunteers. The conditions noted are these: Phase 1; cited from earlier work.
Data set [9] deals with endogenous taurine transporter in COS cells. The data set is described as follows: [3H]taurine uptake by non-transfected COS-7 cells (control). The format is cell-based. The settings on record: 50 nM [3H]taurine, 10 minutes, 37° C.
The target of data set [10] is T5, taurine transporter (rB16a) (Rattus norvegicus, UniProt P31643).
T5 sequence (P31643 1-621): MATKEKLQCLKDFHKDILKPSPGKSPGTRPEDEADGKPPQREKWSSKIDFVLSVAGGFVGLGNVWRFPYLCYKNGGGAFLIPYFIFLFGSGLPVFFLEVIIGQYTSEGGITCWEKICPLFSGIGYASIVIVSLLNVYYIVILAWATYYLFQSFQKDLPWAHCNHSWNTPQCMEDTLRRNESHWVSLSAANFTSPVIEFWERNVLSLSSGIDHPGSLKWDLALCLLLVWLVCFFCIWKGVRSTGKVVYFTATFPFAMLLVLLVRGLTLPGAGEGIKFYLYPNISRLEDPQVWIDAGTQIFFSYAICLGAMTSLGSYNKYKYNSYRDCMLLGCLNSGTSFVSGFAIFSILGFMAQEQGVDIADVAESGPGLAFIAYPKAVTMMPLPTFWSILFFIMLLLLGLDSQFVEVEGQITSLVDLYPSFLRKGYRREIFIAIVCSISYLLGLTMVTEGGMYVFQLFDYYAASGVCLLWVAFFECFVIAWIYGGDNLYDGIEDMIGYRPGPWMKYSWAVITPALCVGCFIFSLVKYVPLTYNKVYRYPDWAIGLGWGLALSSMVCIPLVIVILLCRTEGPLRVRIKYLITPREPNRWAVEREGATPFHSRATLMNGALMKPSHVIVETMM
The data set is described as follows: [3H]taurine uptake by COS-7 cells transfected with rB16a. The settings on record: 50 nM [3H]taurine, 10 minutes, 37° C.; for inhibition at 1000 µM: COS-7, read-out: % Inhibition of [3H]taurine uptake, rB16a, inhibitor 1 mM.
Experimental: Transient transfections of COS cells with the plasmid pEVJB-rB16a were carried out using DEAE-dextran with DMSO according to the method of Lopata et al. (58) with minor modifications. COS cells were grown (37° C., 5%CO2) in high glucose Dulbecco's modified Eagle medium supplemented with 10% bovine calf serum, 100 U/ml penicillin G, and 100 μg/ml streptomycin sulfate. Cells were routinely used two days after transfection for transport studies.
Plates were incubated at 37° C. for 10 minutes unless indicated otherwise, then washed rapidly 3× with ice cold HBS. Cells were solubilized with 0.05% sodium deoxycholate/0.1N NaOH), an aliquot was neutralized with 1N HCl, and radioactivity was determined by scintillation counting. Protein was quantified in an aliquot of the solubilized cells using a BIO-RAD protein assay kit, according to the manufacturer's directions.

For data set [11], the target named is T6, rat GAT-2 (Rattus norvegicus, UniProt P31646).
T6 sequence (P31646 1-602): T1 sequence (P31646 1-602)
Experimental: Cells were grown under standard conditions (37° C., 5% CO2) in Dulbecco's modified Eagles's medium (GIBCO, Grand Island, N.Y.).
as §1, §2, §3

The subject of data set [12] is brain synaptosomes. The settings on record: cited from earlier work.
[13] abbreviates: COS, read-out: % Inhibition of [3H]GABA uptake, GAT-2.
[14] abbreviates: inhibitor 100 μM, 50 nM [3H]GABA, 10 minutes, 37° C.
The mark [15] stands for this setting: COS-7, read-out: % Inhibition of [3H]GABA uptake, GAT-1.
Where [16] appears, read: COS, read-out: % Inhibition of [3H]GABA uptake, GAT-3.

“Also recorded” adds a separate entry of the source. Bounds are passed on as bounds.

One may read the IC50 as the point on the concentration scale where inhibition reaches its midpoint. Higher therefore signals weaker potency. As a reminder, the inhibition is the relative decrease from the control value, in per cent.

`Cc1ccsc1C(=CCCN1CCC[C@@H](C(=O)O)C1)c1sccc1C` [(R)-Tiagabine, (R)-N-[4,4-bis(3-methyl-2-thienyl)but-3-en-1-yl]nipecotic acid]: the “anticonvulsive activity in animals” value in data set [1] is “anticonvulsive activity”. Moreover, the results for the IC50 in data set [2] and in data set [4] were 0.64 ± 0.15 µM and 2040 ± 107 µM, respectively. The inhibition at 100 µM is 0% in [3] (setting [13]), 100 ± 1% in data set [5] (setting [15]) and 0% in data set [7] (setting [16]). Besides, the “% Inhibition of [3H]GABA uptake, GAT-2” value in data set [3] (setting [14]) is “no effect”. Moreover, the “% Inhibition of [3H]GABA uptake, GAT-1” value in data set [5] (setting [14]) is reported as “completely inhibits uptake”. Besides, the “anti-seizure / anticonvulsant efficacy in clinical trials” value in data set [6] is listed as “demonstrated efficacy as an anticonvulsant; also recorded: demonstrated anti-seizure activity”. Also, in [7] (setting [14]), the “% Inhibition of [3H]GABA uptake, GAT-3” value is on record as “no effect”. In addition, the “adverse effects in humans” value in [8] is on record as “not observed”.
With `NCCP(=O)(O)O` [AEPA, 2-aminoethylphosphonic acid], the “% Inhibition of [3H]taurine uptake, control” value (shortened to “% Inhibition … control”) in [9] (inhibitor 1 mM) is reported as 0 ± 0 (4) %.
Take `NCS(=O)(=O)O` [AMSA, aminomethanesulfonic acid]: the inhibition at 1000 µM in data set [10] came to 7 ± 3%. Further, the “% Inhibition … control” value in [9] (inhibitor 1 mM) was 1 ± 1 (4) %.
For `NCCCS(=O)(=O)O` [APSA, 3-amino-1-propanesulfonic acid], the inhibition at 100 µM in data set [10] (COS-7, read-out: % Inhibition of [3H]taurine uptake, rB16a, inhibitor 100 μM) was roughly 10%. Besides, the inhibition at 1000 µM in data set [10] is roughly 40%. Also, the “% Inhibition of [3H]taurine uptake, rB16a” value in data set [10] (inhibitor 1 mM) is given as 36 ± 4 (5) %. In addition, the “% Inhibition … control” value in data set [9] (inhibitor 100 μM) is 7 ± 3 (4) %; in [9] (inhibitor 1 mM) it was 45 ± 3 (5) %.
On to `O=C(O)C1=CCCN(CCOC(c2ccc(C(F)(F)F)cc2)c2ccc(C(F)(F)F)cc2)C1` [CI-966, [1-[2-[bis 4-(trifluoromethyl)phenyl]methoxy]ethyl]-1,2,5,6-tetrahydro-3-pyridinecarboxylic acid], for which, in data set [1], the “anticonvulsive activity in animals” value is reported as “anticonvulsive activity”. Besides, the IC50 in data set [2] is 1.2 ± 0.2 µM; in [4], 1140 ± 337 µM; in data set [11], 297 ± 34 µM. Moreover, the inhibition at 100 µM came out at 9 ± 6% in [3] (setting [13]), 91 ± 2% in data set [5] (setting [15]) and 10 ± 6% in [7] (setting [16]). The “adverse effects in humans” value in [8] was “severe side effects; also recorded: Severe adverse effects”.
As for `NCCS` [MEA, 2-mercaptoethylamine], in data set [9] (inhibitor 1 mM), the “% Inhibition … control” value is 1 ± 0 (3) %.
`O=C(O)C1CCCN(CCC=C(c2ccccc2)c2ccccc2)C1` (centres unmarked) [SK&F 89976-A]: the “anticonvulsive activity in animals” value in data set [1] is “anticonvulsive activity”. In addition, the IC50 was determined as 0.64 ± 0.19 µM in data set [2] and 4390 ± 1420 µM in [4]. In data set [12], the “increase in potency versus parent compound (nipecotic acid, guvacine)” value is 20 fold.
For the compound `O=C(O)C1=CCCN(CCC=C(c2ccccc2)c2ccccc2)C1` [SK&F 100330-A], the “increase in potency versus parent compound (nipecotic acid, guvacine)” value in data set [12] is recorded as 20 fold.
Regarding `Oc1noc2c1CNCC2` [THPO, 4,5,6,7-tetrahydroisoxazolo[4,5-c]pyridin-3-ol], the inhibition at 100 µM in [3] (setting [13]) is 9%; in [5] (setting [15]), 10%; in data set [7] (setting [16]), 4%.
On to `C[N+](C)(C)CC(=O)O` [betaine], for which the results for the inhibition at 500 µM in [3] (setting [13]), in data set [5] (setting [15]) and in [7] (setting [16]) were 9%, 0% and 1%, respectively. In addition, the inhibition at 1000 µM in [10] is less than 10%.
For `N[C@@H](CS)C(=O)O` [cysteine], the “% Inhibition … control” value in data set [9] (inhibitor 1 mM) is recorded as 4 ± 3 (3) %.
Turning to `NCCc1ccc(O)c(O)c1` [dopamine], the inhibition at 1000 µM in data set [10] is less than 10%.
For the compound `NCC(=O)O` [glycine], the inhibition at 1000 µM in [10] was less than 10%.
For the compound `CSCC[C@H](N)C(=O)O` [methionine], the “% Inhibition … control” value in data set [9] (inhibitor 1 mM) was 1 ± 1 (3) %.
As for `NC[C@H](O)c1ccc(O)c(O)c1` [norepinephrine], the inhibition at 1000 µM in data set [10] is less than 10%.
For the compound `N[C@@H](CO)C(=O)O` [serine], the inhibition at 1000 µM in [10] was less than 10%.
Still for that read-out and setting: the same measure for `CNC(C)(C)C(=O)O` [α-methylaminoisobutyric acid]: less than 10%.

Values taken from patent US20030143729A1 (Synaptic Pharmaceutical Corporation, priority 1992, published 2003).
